Experimental data as given in ChEMBL document CHEMBL1687783, “Prevalence and dissemination of oqxAB in Escherichia coli isolates from animals, farmworkers, and the environment” (2010).
≈ marks a conversion by molar mass, not a printed value.

Experiments:
Escherichia coli [1] = experiment: Antimicrobial activity against oqxAB positive Escherichia coli C600 SW8-T transconjugant by CLSI agar dilution method; type: functional
Escherichia coli [2] = experiment: Antimicrobial activity against oqxAB positive Escherichia coli C600 XT11-T transconjugant by CLSI agar dilution method
Escherichia coli [3] = experiment: Antimicrobial activity against oqxAB positive Escherichia coli C600 D83-T transconjugant by CLSI agar dilution method; type: functional
Escherichia coli [4] = experiment: Antimicrobial activity against Escherichia coli DH5[alpha] by CLSI agar dilution method
Escherichia coli [5] = experiment: Antimicrobial activity against oqxAB positive Escherichia coli C600 G375-T transconjugant by CLSI agar dilution method; type: functional
Escherichia coli [6] = experiment: Antimicrobial activity against oqxAB positive Escherichia coli C600 W245-T transconjugant by CLSI agar dilution method; type: functional
Escherichia coli [7] = experiment: Antimicrobial activity against oqxAB positive Escherichia coli C600 X1B1-T transconjugant by CLSI agar dilution method
Escherichia coli [8] = experiment: Antimicrobial activity against oqxAB positive Escherichia coli C600 W281-T transconjugant by CLSI agar dilution method
Escherichia coli [9] = experiment: Antimicrobial activity against oqxAB positive Escherichia coli DH5[alpha] harboring pMD18-T::oqxAB by CLSI agar dilution method; type: functional
Escherichia coli [10] = experiment: Antimicrobial activity against oqxAB positive Escherichia coli C600 W322-T transconjugant by CLSI agar dilution method; type: functional
Escherichia coli [11] = experiment: Antimicrobial activity against oqxAB positive Escherichia coli C600 G262-T transconjugant by CLSI agar dilution method
Escherichia coli [12] = experiment: Antimicrobial activity against Escherichia coli C600 by CLSI agar dilution method
Escherichia coli [13] = experiment: Antimicrobial activity against oqxAB positive Escherichia coli C600 SP8-T transconjugant by CLSI agar dilution method; type: functional
Escherichia coli [14] = experiment: Antimicrobial activity against Escherichia coli C600 ST2-T transconjugant harboring oqxAB, qnrB6 and aac(6')-Ib-cr genes by CLSI agar dilution method; type: functional
Escherichia coli [15] = experiment: Antimicrobial activity against oqxAB positive Escherichia coli C600 W191-T transconjugant by CLSI agar dilution method; type: functional
Escherichia coli [16] = experiment: Antimicrobial activity against oqxAB positive Escherichia coli C600 G062-T transconjugant by CLSI agar dilution method

Row | Compound | MIC (Escherichia coli [1]) [µg/mL] | MIC (Escherichia coli [2]) [µg/mL] | MIC (Escherichia coli [3]) [µg/mL] | MIC (Escherichia coli [4]) [µg/mL] | MIC (Escherichia coli [5]) [µg/mL] | MIC (Escherichia coli [6]) [µg/mL] | MIC (Escherichia coli [7]) [µg/mL] | MIC (Escherichia coli [8]) [µg/mL] | MIC (Escherichia coli [9]) [µg/mL] | MIC (Escherichia coli [10]) [µg/mL] | MIC (Escherichia coli [11]) [µg/mL] | MIC (Escherichia coli [12]) [µg/mL] | MIC (Escherichia coli [13]) [µg/mL] | MIC (Escherichia coli [14]) [µg/mL] | MIC (Escherichia coli [15]) [µg/mL] | MIC (Escherichia coli [16]) [µg/mL]
1 | CCn1cc(C(=O)O)c(=O)c2cc(F)c(N3CCNCC3)cc21 [NORFLOXACIN] | 0.5 (≈ 1.57 µM) | 0.25 (≈ 0.783 µM) | 0.125 (≈ 0.391 µM) | 0.03 (≈ 0.0939 µM) | 0.25 (≈ 0.783 µM) | 0.125 (≈ 0.391 µM) | 0.125 (≈ 0.391 µM) | 0.125 (≈ 0.391 µM) | 0.25 (≈ 0.783 µM) | 0.25 (≈ 0.783 µM) | 0.25 (≈ 0.783 µM) | 0.03 (≈ 0.0939 µM) | 0.125 (≈ 0.391 µM) | 4 (≈ 12.5 µM) | 0.125 (≈ 0.391 µM) | 0.125 (≈ 0.391 µM)
2 | CCn1cc(C(=O)O)c(=O)c2ccc(C)nc21 [NALIDIXIC ACID] | 64 (≈ 276 µM) | 16 (≈ 68.9 µM) | 8 (≈ 34.4 µM) | 2 (≈ 8.61 µM) | 64 (≈ 276 µM) | 16 (≈ 68.9 µM) | 16 (≈ 68.9 µM) | 16 (≈ 68.9 µM) | 32 (≈ 138 µM) | 64 (≈ 276 µM) | 16 (≈ 68.9 µM) | 2 (≈ 8.61 µM) | 32 (≈ 138 µM) | 256 (≈ 1100 µM) | 16 (≈ 68.9 µM) | 32 (≈ 138 µM)
3 | CN[C@@H]1[C@H](O[C@H]2[C@H](O[C@H]3[C@H](O)[C@@H](O)[C@H](N=C(N)N)[C@@H](O)[C@@H]3N=C(N)N)O[C@@H](C)[C@]2(O)C=O)O[C@@H](CO)[C@H](O)[C@H]1O [STREPTOMYCIN] | > 522 | > 521 | > 525 | 4 (≈ 6.88 µM) | > 519 | > 516 | > 520 | > 513 | 2 (≈ 3.44 µM) | > 515 | > 517 | > 512 | > 524 | > 523 | > 514 | > 518
4 | CS(=O)(=O)c1ccc([C@@H](O)[C@@H](CF)NC(=O)C(Cl)Cl)cc1 [FLORFENICOL] | 16 (≈ 44.7 µM) | 16 (≈ 44.7 µM) | 8 (≈ 22.3 µM) | 4 (≈ 11.2 µM) | 16 (≈ 44.7 µM) | 16 (≈ 44.7 µM) | 16 (≈ 44.7 µM) | 16 (≈ 44.7 µM) | 16 (≈ 44.7 µM) | 16 (≈ 44.7 µM) | 16 (≈ 44.7 µM) | 2 (≈ 5.58 µM) | 16 (≈ 44.7 µM) | 4 (≈ 11.2 µM) | 16 (≈ 44.7 µM) | 16 (≈ 44.7 µM)
5 | CN(C)[C@@H]1C(O)=C(C(N)=O)C(=O)[C@@]2(O)C(O)=C3C(=O)c4c(O)cccc4[C@@](C)(O)[C@H]3C[C@@H]12 [TETRACYCLINE] | 1 (≈ 2.25 µM) | 64 (≈ 144 µM) | 4 (≈ 9 µM) | 2 (≈ 4.5 µM) | 4 (≈ 9 µM) | 1 (≈ 2.25 µM) | 32 (≈ 72 µM) | 2 (≈ 4.5 µM) | 4 (≈ 9 µM) | 1 (≈ 2.25 µM) | 32 (≈ 72 µM) | 1 (≈ 2.25 µM) | 2 (≈ 4.5 µM) | 2 (≈ 4.5 µM) | 64 (≈ 144 µM) | 4 (≈ 9 µM)
6 | CCN1CCN(c2cc3c(cc2F)c(=O)c(C(=O)O)cn3C2CC2)CC1 [ENROFLOXACIN] | 0.125 (≈ 0.348 µM) | 0.06 (≈ 0.167 µM) | 0.06 (≈ 0.167 µM) | 0.016 (≈ 0.0445 µM) | 0.125 (≈ 0.348 µM) | 0.06 (≈ 0.167 µM) | 0.125 (≈ 0.348 µM) | 0.06 (≈ 0.167 µM) | 0.125 (≈ 0.348 µM) | 0.125 (≈ 0.348 µM) | 0.125 (≈ 0.348 µM) | 0.016 (≈ 0.0445 µM) | 0.06 (≈ 0.167 µM) | 2 (≈ 5.56 µM) | 0.125 (≈ 0.348 µM) | 0.125 (≈ 0.348 µM)
7 | Cc1c(C(=O)NCCO)[n+]([O-])c2ccccc2[n+]1[O-] [OLAQUINDOX] | 512 (≈ 1940 µM) | 256 (≈ 972 µM) | 256 (≈ 972 µM) | 8 (≈ 30.4 µM) | 256 (≈ 972 µM) | 512 (≈ 1940 µM) | 256 (≈ 972 µM) | 128 (≈ 486 µM) | 128 (≈ 486 µM) | 512 (≈ 1940 µM) | 256 (≈ 972 µM) | 8 (≈ 30.4 µM) | 256 (≈ 972 µM) | 512 (≈ 1940 µM) | 256 (≈ 972 µM) | 256 (≈ 972 µM)
8 | GENTAMICIN | 32 | – | 0.25 | – | 0.25 | 0.25 | – | – | 0.125 | 0.125 | – | – | 0.25 | 0.25 | 1 | –
9 | O=C(N[C@H](CO)[C@H](O)c1ccc([N+](=O)[O-])cc1)C(Cl)Cl [CHLORAMPHENICOL] | 128 (≈ 396 µM) | 128 (≈ 396 µM) | 32 (≈ 99 µM) | 4 (≈ 12.4 µM) | 32 (≈ 99 µM) | 64 (≈ 198 µM) | 128 (≈ 396 µM) | 128 (≈ 396 µM) | 64 (≈ 198 µM) | 64 (≈ 198 µM) | 128 (≈ 396 µM) | 4 (≈ 12.4 µM) | 64 (≈ 198 µM) | 32 (≈ 99 µM) | 128 (≈ 396 µM) | 32 (≈ 99 µM)
10 | CC1(C)S[C@@H]2[C@H](NC(=O)[C@H](N)c3ccccc3)C(=O)N2[C@H]1C(=O)O [AMPICILLIN] | > 128 | > 128 | 16 (≈ 45.8 µM) | > 128 | 16 (≈ 45.8 µM) | > 128 | 16 (≈ 45.8 µM) | > 128 | – | > 128 | 8 (≈ 22.9 µM) | 4 (≈ 11.4 µM) | > 128 | 4 (≈ 11.4 µM) | > 128 | > 128
11 | CC(=O)c1c(C)[n+]([O-])c2ccccc2[n+]1[O-] [MEQUINDOX] | 256 (≈ 1170 µM) | 128 (≈ 587 µM) | 128 (≈ 587 µM) | 4 (≈ 18.3 µM) | 256 (≈ 1170 µM) | 128 (≈ 587 µM) | 64 (≈ 293 µM) | 64 (≈ 293 µM) | 64 (≈ 293 µM) | 256 (≈ 1170 µM) | 128 (≈ 587 µM) | 4 (≈ 18.3 µM) | 256 (≈ 1170 µM) | 128 (≈ 587 µM) | 128 (≈ 587 µM) | 128 (≈ 587 µM)
